Assay results as given in patent US12201723B2, “Combined pharmaceutical formulation comprising gemcitabine-containing liposome composition and immune checkpoint inhibitor” (FUJIFILM Corporation, priority 2018, dated 2025).

How the values were obtained:
[1] = test system: intratumoral immune cells (CD8-positive T cells, M1 and M2 macrophages) of EMT6 tumors; experiment: Changes in immune cell composition in tumor in tumor-bearing model mouse with subcutaneous transplantation of EMT6 (flow cytometry); format: in vivo; details: tumors excised Days 16 and 17 after start; Gem 240 mg/kg or Lipo 4 mg/kg 3 times; CTLA-4 10 mg/kg or PBS 5 times
Description: It is said that a high percentage of CD8-positive T cells in the tumor and a high ratio of M1 macrophages compared to M2 macrophages result in an antitumor environment (reference: J Clin Invest. 2012; 122(3); 787-95).
Tumors were excised on Days 16 and 17 after the start of administration and used for analysis of intratumoral immune cells.
The excised tumor was made into a cell-dispersed state using Tumor Dissociation Kit, mouse (catalog number 130-096-730, manufactured by Miltenyi Biotec GmbH), and intratumoral immune cells were isolated using CD45 (TIL) MicroBeads (catalog number 130-110-618, manufactured by Miltenyi Biotec GmbH). Dead cells were stained using LIVE/DEAD (trademark) Fixable Yellow Dead Cell Stain Kit (catalog number L34968, manufactured by Invitrogen Corporation), and various immune cell markers were stained using the following fluorescently labeled antibodies. […] The samples were analyzed using a flow cytometer (Attune NxT, manufactured by Invitrogen Corporation). CD8-positive T cells (CD3-positive, CD8-positive), M1 macrophages (CD11b-positive, F4/80-positive, MHC Class II-positive, CD206-negative), and M2 macrophages (CD11b-positive, F4/80-positive, MHC Class II-negative, CD206-positive) were identified, and the percentage of each cell group was calculated.

EMT6 tumor cells [2] = experiment: Drug efficacy test with combined use of PD-1 in tumor-bearing model mouse with subcutaneous transplantation of EMT6; format: in vivo
Description: As the test substance, the same substance as in Example 1 was used.
Changes in tumor volume are shown in FIG. 12 (mean value) and FIGS. 13 to 20 (on the basis of an individual). […] In Table 5 and Table 6, “Number of test subjects in complete remission” means that the tumor volume was zero.

EMT6 tumor cells [3] = experiment: Drug efficacy test with combined use of anti-CTLA-4 antibody in tumor-bearing model mouse with subcutaneous transplantation of EMT6
Description: The anti-CTLA-4 antibody (hereinafter, also referred to as CTLA-4), Gem, and the liposome composition according to the embodiment of the present invention were used as test substances. […] The liposome composition according to the embodiment of the present invention was diluted with 5% Glu prior to use.
1.7×10^6 EMT6 cells, which are a mouse breast cancer cell line, were subcutaneously transplanted into the flank of female Balb/c mice to form subcutaneous tumors. Using the tumor volume as an index, inhibitory effects of combined administration of CTLA-4 and Gem and combined administration of CTLA-4 and the liposome composition according to the embodiment of the present invention on subcutaneous tumors were evaluated.
CTLA-4 and a solvent therefor (PBS) were intraperitoneally administered twice a week for a total of 3 weeks, and Gem, the liposome composition according to the embodiment of the present invention, and a solvent therefor (5% Glu) were administered once a week by tail vein administration for a total of 3 weeks.
After the 3-week administration was completed, the drug was discontinued, and the tumor volume measurement was continued for 4 weeks. Test subjects with a tumor volume of more than 10% of body weight were euthanized during the test, and drug efficacy analysis was carried out based on the survival rate (tumor-free survival %).
Group configuration was set to a combination of 5% Glu and PBS for Group 1, a combination of 5% Glu and CTLA-4 (10 mg/kg) for Group 2, a combination of Gem (240 mg/kg) and PBS for Group 3, a combination of Gem (240 mg/kg) and CTLA-4 (10 mg/kg) for Group 4, a combination of the liposome composition according to the embodiment of the present invention (1 mg/kg) and PBS for Group 5, a combination of the liposome composition according to the embodiment of the present invention (1 mg/kg) and CTLA-4 (10 mg/kg) for Group 6, a combination of the liposome composition according to the embodiment of the present invention (4 mg/kg) and PBS for Group 7, and a combination of the liposome composition according to the embodiment of the present invention (4 mg/kg) and CTLA-4 (10 mg/kg) for Group 8.
(§1) In addition, Lipo (1) and Lipo (4) mean that the liposome composition according to the embodiment of the present invention was administered to a subject at a dose of 1 mg/kg and a dose of 4 mg/kg, respectively.
The survival rate (tumor-free survival %) in a case where a test subject with a tumor volume of more than 10% of body weight was euthanized was calculated, and the results of a survival curve by the Kaplan-Meier method are shown in FIG. 29. […] As a statistical analysis of an effect of prolonging the survival time, a log-rank test was carried out, and a p value of less than 5% between the groups was determined to have a statistically significant difference. Graghpad Prism version 5.03 was used for the calculation of median survival calculated from the survival curve by Kaplan-Meier method and the statistical analysis.

EMT6 tumor cells [4] = experiment: Drug efficacy test with combined use of PD-L1 in tumor-bearing model mouse with subcutaneous transplantation of EMT6
Description: An anti-PD-L1 antibody (hereinafter, also referred to as PD-L1), gemcitabine (hereinafter, also referred to as Gem), and gemcitabine-containing liposome composition (hereinafter, also referred to as liposome composition according to the embodiment of the present invention) were used as test substances. Gemcitabine hydrochloride (manufactured by Teva Pharmaceutical Industries Ltd.) dissolved in physiological saline was used as Gem. The liposome composition according to the embodiment of the present invention was diluted with a 5% glucose solution for injection (hereinafter, also referred to as 5% Glu; 0.05 g/mL) prior to use.
3×10^6 EMT6 cells, which are a mouse breast cancer cell line, were subcutaneously transplanted into the flank of female Balb mice to form subcutaneous tumors. Using the tumor volume as an index, inhibitory effects of combined administration of PD-L1 and Gem and combined administration of PD-L1 and the liposome composition according to the embodiment of the present invention on subcutaneous tumors were evaluated.
PD-L1 and an isotype control antibody thereof (hereinafter, also referred to as Iso antibody) were intraperitoneally administered twice a week for a total of 3 weeks, and Gem, the liposome composition according to the embodiment of the present invention, and a solvent therefor (5% Glu) were administered once a week by tail vein administration for a total of 3 weeks.
After the 3-week administration was completed, the drug was discontinued, and the tumor volume measurement was continued for 2 weeks. Test subjects with a tumor volume of more than 10% of body weight were euthanized during the test, and drug efficacy analysis was carried out based on the survival rate (tumor-free survival %).
Group configuration was set to a combination of 5% Glu and Iso antibody (10 mg/kg) for Group 1, a combination of 5% Glu and PD-L1 (10 mg/kg) for Group 2, a combination of Gem (240 mg/kg) and Iso antibody (10 mg/kg) for Group 3, a combination of Gem (240 mg/kg) and PD-L1 (10 mg/kg) for Group 4, a combination of the liposome composition according to the embodiment of the present invention (1 mg/kg) and Iso antibody (10 mg/kg) for Group 5, a combination of the liposome composition according to the embodiment of the present invention (1 mg/kg) and PD-L1 (10 mg/kg) for Group 6, a combination of the liposome composition according to the embodiment of the present invention (4 mg/kg) and Iso antibody (10 mg/kg) for Group 7, and a combination of the liposome composition according to the embodiment of the present invention (4 mg/kg) and PD-L1 (10 mg/kg) for Group 8.
as §1
As a statistical analysis of an effect of prolonging the survival time, a log-rank test was carried out, and a p value of less than 5% between the groups was determined to have a statistically significant difference.

[5] = Gem 240 mg/kg or Lipo 1 mg/kg, CTLA-4 10 mg/kg or PBS

**Q.** With `Nc1ccn([C@@H]2O[C@H](CO)[C@@H](O)C2(F)F)c(=O)n1` [Gem, (+)-2′-deoxy-2′,2′-difluorocytidine] as the compound, how does the “percentage of CD8-positive T cells in the tumor (in words)” value [1] read?
**A.** not changed

**Q.** What about the “tumor growth inhibitory effect (in words)” value (EMT6 tumor cells [2]; Gem 240 mg/kg or Lipo 2 mg/kg, PD-1 10 mg/kg or PBS) of the same compound?
**A.** tumor growth could not be stopped

**Q.** What about the “Complete remission rate (%)” value (EMT6 tumor cells [2]; by day 41, Gem 240 mg/kg or Lipo 2 mg/kg, PD-1 10 mg/kg or PBS) of the same compound?
**A.** 0%

**Q.** What about the “Number of test subjects in complete remission” value (from here on “Number of test subjects”) (EMT6 tumor cells [2]; by post-transplantation day 41, 8 per group, Gem 240 mg/kg or Lipo 2 mg/kg once/3W tail, PD-1 10 mg/kg or PBS twice/3W i.p.) of the same compound?
**A.** 0

**Q.** And the “Tumor volume mean value (mm^3)” value (EMT6 tumor cells [2]; day 6 after transplantation, Gem 240 mg/kg or Lipo 2 mg/kg, PD-1 10 mg/kg or PBS)?
**A.** 432 mm^3

**Q.** And the “Tumor volume mean value (mm^3)” value (EMT6 tumor cells [2]; day 9 after transplantation, Gem 240 mg/kg or Lipo 2 mg/kg, PD-1 10 mg/kg or PBS)?
**A.** 473 mm^3

**Q.** What about the “Tumor volume mean value (mm^3)” value (EMT6 tumor cells [2]; day 13 after transplantation, Gem 240 mg/kg or Lipo 2 mg/kg, PD-1 10 mg/kg or PBS) of the same compound?
**A.** 1129 mm^3

**Q.** What about the “Tumor volume mean value (mm^3)” value (EMT6 tumor cells [2]; day 16 after transplantation, Gem 240 mg/kg or Lipo 2 mg/kg, PD-1 10 mg/kg or PBS) of the same compound?
**A.** 1228 mm^3

**Q.** And the “Tumor volume mean value (mm^3)” value (EMT6 tumor cells [2]; day 20 after transplantation, Gem 240 mg/kg or Lipo 2 mg/kg, PD-1 10 mg/kg or PBS)?
**A.** 2265 mm^3

**Q.** What about the “Tumor volume mean value (mm^3)” value (EMT6 tumor cells [2]; day 23 after transplantation, Gem 240 mg/kg or Lipo 2 mg/kg, PD-1 10 mg/kg or PBS) of the same compound?
**A.** 3521 mm^3

**Q.** And the “animals subjected to euthanasia by the day of test termination” value (EMT6 tumor cells [2]; post-transplantation day 41, Gem 240 mg/kg or Lipo 2 mg/kg, PD-1 10 mg/kg or PBS)?
**A.** all animals

**Q.** What about the “Median survival Percentage (control group / comparative group)” value (EMT6 tumor cells [3]; [5]) of the same compound?
**A.** 1.40

**Q.** What about the “tumor growth inhibitory effect (in words)” value (EMT6 tumor cells [3]; [5]) of the same compound?
**A.** tumor growth could not be stopped

**Q.** And the Median survival (EMT6 tumor cells [3]; Kaplan-Meier, euthanasia at tumor volume >10% of body weight, Gem 240 mg/kg or Lipo 1 mg/kg, CTLA-4 10 mg/kg or PBS)?
**A.** 29.5

**Q.** What about the “Complete remission rate (%)” value (EMT6 tumor cells [3]; by day 52, Gem 240 mg/kg or Lipo 1 mg/kg, CTLA-4 10 mg/kg or PBS) of the same compound?
**A.** 0%

**Q.** And the “Number of test subjects” value (EMT6 tumor cells [3]; by post-transplantation day 52, 8 per group, Gem 240 mg/kg or Lipo 1 mg/kg once/3W tail, CTLA-4 10 mg/kg or PBS twice/3W i.p.)?
**A.** 0

**Q.** And the “test subjects subjected to euthanasia by the day of test termination” value (EMT6 tumor cells [3]; post-transplantation day 52, out of 8, Gem 240 mg/kg or Lipo 1 mg/kg, CTLA-4 10 mg/kg or PBS)?
**A.** All test subjects

**Q.** What about the “Log-rank Test Determination” value (EMT6 tumor cells [3]; single agents vs 5% Glu + PBS, combinations vs same drug + PBS, Gem 240 mg/kg or Lipo 1 mg/kg, CTLA-4 10 mg/kg) of the same compound?
**A.** b (“b” indicates p<0.001)

**Q.** And the “effect of prolonging the survival time (in words)” value (EMT6 tumor cells [3]; single agents vs Group 1, combinations vs same drug + PBS, Gem 240 mg/kg or Lipo 1 mg/kg, CTLA-4 10 mg/kg)?
**A.** statistically significant effect

**Q.** What about the “tumor growth inhibitory effect (in words)” value (EMT6 tumor cells [4]; Gem 240 mg/kg or Lipo 1 mg/kg, PD-L1 or Iso antibody 10 mg/kg) of the same compound?
**A.** tumor growth could not be stopped

**Q.** And the Median survival (EMT6 tumor cells [4]; Kaplan-Meier, euthanasia at tumor volume >10% of body weight, Gem 240 mg/kg or Lipo 1 mg/kg, PD-L1 or Iso antibody 10 mg/kg)?
**A.** 20

**Q.** What about the “Complete remission rate (%)” value (EMT6 tumor cells [4]; by day 41, Gem 240 mg/kg or Lipo 1 mg/kg, PD-L1 or Iso antibody 10 mg/kg) of the same compound?
**A.** 0%

**Q.** And the “Number of test subjects” value (EMT6 tumor cells [4]; by post-transplantation day 41, 8 per group, Gem 240 mg/kg or Lipo 1 mg/kg once/3W tail, PD-L1 or Iso antibody 10 mg/kg twice/3W i.p.)?
**A.** 0

**Q.** And the “test subjects subjected to euthanasia by the day of test termination” value (EMT6 tumor cells [4]; post-transplantation day 41, Gem 240 mg/kg or Lipo 1 mg/kg, PD-L1 or Iso antibody 10 mg/kg)?
**A.** all test subjects

**Q.** And the “effect of prolonging the survival time (in words)” value (EMT6 tumor cells [4]; single agents vs Group 1, combinations vs same drug + Iso antibody, Gem 240 mg/kg or Lipo 1 mg/kg, PD-L1 10 mg/kg)?
**A.** No significant prolongation
